Experimental data published in US20260356823A1, “SODIUM CHANNEL REGULATOR AND USE THEREOF” (SHANGHAI HUILUN PHARMACEUTICAL CO., LTD., priority 2022, published 2026).

target: T1, human Nav1.8 (Homo sapiens, UniProt Q9Y5Y9); assay: In vitro inhibition of Nav1.8, manual patch clamp on HEK293 cells stably expressing human Nav1.8; format: cell-based; settings: 100 nM, human Nav1.8, manual patch clamp
T1 construct: expressed in transfected cells
Description: Bioactivity Test 1: In Vitro Inhibition of Nav1.8 by the Compound
By using a manual patch clamp on HEK293 cells stably expressing human Nav1.8, currents on Nav1.8 before and after administration of the compound were compared after the currents on Nav1.8 were stable, to obtain the effect of the compound on the Nav1.8 channel.
The to-be-tested compound was dissolved in DMSO to prepare a 9 mM stock solution, which was taken and dissolved in extracellular fluid at a desired concentration on the day of testing. The extracellular fluid included the following ingredients (mM): NaCl, 137; KCl, 4; CaCl2, 1.8; MgCl2, 1; HEPES, 10; glucose, 10; and pH 7.4 (NaOH titration). All reagents were purchased from Sigma (St. Louis, MO).
The cells were clamped at −80 mV and depolarized with a sustained 10 ms square wave to 10 mV to obtain a current on Nav1.8. This process was repeated every 5 seconds. A maximum current caused by the square wave was detected. After the current is stable, the to-be-tested compound (dissolved in the extracellular fluid at the desired concentration) was perfused. After the current is stable, the strength of blocking Nav1.8 by the compound was calculated based on the currents before and after perfusion of the compound. pCLAMP 10 (Molecular Devices, Union City, CA) was used. That the current is stable means that the current changes over time within a limited range.

T1 sequence (Q9Y5Y9 whole entry): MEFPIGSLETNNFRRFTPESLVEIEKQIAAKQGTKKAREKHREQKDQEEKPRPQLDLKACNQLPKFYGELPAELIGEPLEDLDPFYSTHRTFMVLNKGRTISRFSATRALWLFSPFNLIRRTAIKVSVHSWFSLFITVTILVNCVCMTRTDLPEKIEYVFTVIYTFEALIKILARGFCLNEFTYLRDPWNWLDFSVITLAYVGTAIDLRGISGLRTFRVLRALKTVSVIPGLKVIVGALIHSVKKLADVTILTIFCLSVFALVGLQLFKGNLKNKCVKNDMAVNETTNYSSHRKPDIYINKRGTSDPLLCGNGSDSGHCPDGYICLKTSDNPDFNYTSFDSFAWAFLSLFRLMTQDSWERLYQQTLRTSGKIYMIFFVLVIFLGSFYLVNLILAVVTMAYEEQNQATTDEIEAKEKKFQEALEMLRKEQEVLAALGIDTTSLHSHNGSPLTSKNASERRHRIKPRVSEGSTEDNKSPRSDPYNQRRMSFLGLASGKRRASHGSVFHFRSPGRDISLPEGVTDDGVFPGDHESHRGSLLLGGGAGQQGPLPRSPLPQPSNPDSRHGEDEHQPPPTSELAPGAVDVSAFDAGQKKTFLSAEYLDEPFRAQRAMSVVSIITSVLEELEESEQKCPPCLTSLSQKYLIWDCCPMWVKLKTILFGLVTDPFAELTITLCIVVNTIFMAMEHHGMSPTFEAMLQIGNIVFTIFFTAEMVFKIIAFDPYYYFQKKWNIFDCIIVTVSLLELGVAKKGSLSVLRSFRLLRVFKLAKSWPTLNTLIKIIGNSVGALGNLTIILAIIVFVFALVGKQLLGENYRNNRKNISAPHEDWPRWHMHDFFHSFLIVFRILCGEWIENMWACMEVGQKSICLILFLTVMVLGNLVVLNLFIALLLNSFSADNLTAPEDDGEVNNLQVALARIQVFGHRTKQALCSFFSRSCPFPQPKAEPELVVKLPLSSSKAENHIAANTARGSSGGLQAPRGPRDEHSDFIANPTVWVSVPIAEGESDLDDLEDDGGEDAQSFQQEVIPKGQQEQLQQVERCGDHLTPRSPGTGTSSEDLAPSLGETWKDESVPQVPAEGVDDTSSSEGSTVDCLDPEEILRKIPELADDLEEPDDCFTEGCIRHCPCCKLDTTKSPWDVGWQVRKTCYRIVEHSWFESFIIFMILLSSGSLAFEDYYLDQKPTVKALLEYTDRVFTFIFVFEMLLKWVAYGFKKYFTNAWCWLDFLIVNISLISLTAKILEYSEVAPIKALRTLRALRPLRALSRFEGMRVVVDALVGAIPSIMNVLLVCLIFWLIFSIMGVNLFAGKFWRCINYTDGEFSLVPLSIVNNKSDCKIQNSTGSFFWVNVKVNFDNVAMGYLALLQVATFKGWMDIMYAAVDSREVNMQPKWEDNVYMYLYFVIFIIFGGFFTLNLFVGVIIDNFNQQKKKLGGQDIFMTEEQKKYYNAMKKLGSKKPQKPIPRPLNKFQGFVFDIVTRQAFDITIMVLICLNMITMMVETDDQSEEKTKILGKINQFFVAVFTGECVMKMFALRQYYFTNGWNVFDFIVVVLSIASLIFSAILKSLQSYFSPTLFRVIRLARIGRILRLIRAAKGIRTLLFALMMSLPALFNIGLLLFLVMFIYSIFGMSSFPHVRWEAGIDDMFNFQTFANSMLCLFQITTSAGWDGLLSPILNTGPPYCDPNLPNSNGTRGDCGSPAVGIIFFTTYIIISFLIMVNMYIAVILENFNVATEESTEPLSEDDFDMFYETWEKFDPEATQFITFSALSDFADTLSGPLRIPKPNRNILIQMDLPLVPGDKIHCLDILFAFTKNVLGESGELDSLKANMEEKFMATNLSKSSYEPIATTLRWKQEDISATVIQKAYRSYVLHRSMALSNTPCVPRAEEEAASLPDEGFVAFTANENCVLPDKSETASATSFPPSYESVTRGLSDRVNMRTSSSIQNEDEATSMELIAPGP

Row | Compound | Inhibitory activity (inhibition/% at 100 nM concentration)
1 | rel-(2R,3S,4S,5R)-3-(3,4-difluoro-2-methoxyphenyl)-4,5-dimethyl-N-(4-oxo-3H-quinazolin-6-yl)-5-(trifluoromethyl)tetrahydrofuran-2-carboxamide [Example 4] | A (A ≥ 50)

same assay, conditions: HEK293, 100 nM, human Nav1.8, manual patch clamp, read-out: Inhibitory activity (inhibition/% at 100 nM concentration)

Row | Compound | inhibition at 0.1 µM
2 | COc1c([C@H]2[C@H](C(=O)Nc3ccc(C#N)c(C(N)=O)c3)O[C@@](C)(C(F)(F)F)[C@H]2C)ccc(F)c1F (relative stereo) [Example 25, rel-(2R,3S,4S,5R)—N-(3-carbamoyl-4-cyanophenyl)-3-(3,4-difluoro-2-methoxyphenyl)-4,5-dimethyl-5-(trifluoromethyl)tetrahydrofuran-2-carboxamide] | ≥ 50%
3 | COc1c([C@H]2C(C(=O)Nc3ccnc(S(C)(=N)=O)c3)O[C@]3(C(F)(F)F)CC[C@]23C)ccc(F)c1F (relative stereo) [Example 93, rel-(1R,3R,4S,5R)-4-(3,4-difluoro-2-methoxyphenyl)-5-methyl-N-(2-(S-methylsulfoximine)pyridin-4-yl)-1-(trifluoromethyl)-2-oxabicyclo[3.2.0]heptane-3-carboxamide] | ≥ 50%
4 | COc1c([C@H]2[C@H](C(=O)Nc3ccc4c(c3)C(=O)NC4=O)O[C@@](C)(C(F)(F)F)[C@H]2C)ccc(F)c1F (relative stereo) [Example 10, rel-(2R,3S,4S,5R)-3-(3,4-difluoro-2-methoxyphenyl)-N-(1,3-dioxo-2,3-dihydro-1H-isoindol-5-yl)-4,5-dimethyl-5-(trifluoromethyl)tetrahydrofuran-2-carboxamide] | ≥ 50%
5 | COc1c(C2C(C(=O)Nc3ccc(C(N)=O)c(C(N)=O)c3)OC(C)(C(F)(F)F)C2C)ccc(F)c1F (single isomer, unassigned) [Example 30-1] | < 50%
6 | COc1c([C@H]2[C@H](C(=O)Nc3ccnc(N4CCN(C)CC4=O)c3)O[C@]3(C(F)(F)F)CC[C@]23C)ccc(F)c1F (relative stereo) [Example 100, rel-(1R,3R,4S,5R)-4-(3,4-difluoro-2-methoxyphenyl)-5-methyl-N-(2-(4-methyl-2-oxopiperazin-1-yl)pyridin-4-yl)-1-(trifluoromethyl)-2-oxabicyclo[3.2.0]heptane-3-carboxamide] | ≥ 50%
7 | COc1c([C@H]2C(C(=O)Nc3ccnc(OC[C@H](O)CO)c3)O[C@]3(C(F)(F)F)CC[C@]23C)ccc(F)c1F (relative stereo) [Example 96, rel-(1R,3R,4S,5R)-4-(3,4-difluoro-2-methoxyphenyl)-N-(2-(R)-2,3-dihydroxypropoxypyridin-4-yl)-5-methyl-1-trifluoromethyl-2-oxabicyclo[3.2.0]heptane-3-carboxamide] | ≥ 50%
8 | COc1c([C@H]2[C@H](C(=O)Nc3ccc4c(c3)C(=O)NC4)O[C@@](C)(C(F)(F)F)[C@H]2C)ccc(F)c1F (relative stereo) [Example 1, rel-(2R,3S,4S,5R)-3-(3,4-difluoro-2-methoxyphenyl)-4,5-dimethyl-N-(3-oxoisoindolin-5-yl)-5-(trifluoromethyl)tetrahydrofuran-2-carboxamide] | ≥ 50%
9 | COc1c(C2C(C(=O)Nc3ccnc(OCC(O)CO)c3)OC3(C(F)(F)F)CCC23C)ccc(F)c1F [Example 95, rel-(1R,3R,4S,5R)-4-(3,4-difluoro-2-methoxyphenyl)-N-(2-(S)-2,3-dihydroxypropoxypyridin-4-yl)-5-methyl-1-trifluoromethyl-2-oxabicyclo[3.2.0]heptane-3-carboxamide] | ≥ 50%
10 | COc1c([C@H]2[C@H](C(=O)Nc3ccc4o[nH]c(=O)c4c3)O[C@@](C)(C(F)(F)F)[C@H]2C)ccc(F)c1F (relative stereo) [Example 5, rel-(2R,3S,4S,5R)-3-(3,4-difluoro-2-methoxyphenyl)-4,5-dimethyl-N-(3-oxo-2H-benzo[d]isoxazol-5-yl)-5-(trifluoromethyl)tetrahydrofuran-2-carboxamide] | ≥ 50%
11 | COc1c([C@H]2[C@H](C(=O)Nc3ccnc(C(=O)N4CCCO4)c3)O[C@@](C)(C(F)(F)F)[C@H]2C)ccc(F)c1F (relative stereo) [Example 32, rel-(2R,3S,4S,5R)-3-(3,4-difluoro-2-methoxyphenyl)-4,5-dimethyl-N-[2-(tetrahydroisoxazol-2-ylcarbonyl)pyridin-4-yl]-5-(trifluoromethyl)tetrahydrofuran-2-carboxamide] | ≥ 50%
12 | COc1c([C@H]2[C@H](C(=O)Nc3ccc4c(c3)C(=O)OOC4N)O[C@@](C)(C(F)(F)F)[C@H]2C)ccc(F)c1F (relative stereo) [Example 13, rel-(2R,3S,4S,5R)—N-(1-amino-4-oxo-3H-benzo[2,1-d][1,2]dioxine-6-yl)-3-(3,4-difluoro-2-methoxyphenyl)-4,5-dimethyl-5-(trifluoromethyl)tetrahydrofuran-2-carboxamide] | ≥ 50%
13 | COc1c([C@H]2[C@H](C(=O)Nc3ccc4c(c3)S(=O)(=O)NC4)O[C@@](C)(C(F)(F)F)[C@H]2C)ccc(F)c1F (relative stereo) [Example 9, rel-(2R,3S,4S,5R)-3-(3,4-difluoro-2-methoxyphenyl)-N-(1,1-dioxo-2,3-dihydrobenzo[d]isothiazol-6-yl)-4,5-dimethyl-5-(trifluoromethyl)tetrahydrofuran-2-carboxamide] | ≥ 50%
14 | COc1c([C@H]2[C@H](C(=O)Nc3ccc(C(N)=O)c(C(N)=O)c3)O[C@@](C)(C(F)(F)F)[C@H]2C)ccc(F)c1F (relative stereo) [Example 30, rel-(2R,3S,4S,5R)-4-({[3-(3,4-difluoro-2-methoxyphenyl)-4,5-dimethyl-5-(trifluoromethyl)tetrahydrofuran-2-yl]carbonyl}amino)benzene-1,2-dicarboxamide] | ≥ 50%
15 | COc1c([C@H]2[C@H](C(=O)Nc3ccnc4c(N)nccc34)O[C@@](C)(C(F)(F)F)[C@H]2C)ccc(F)c1F [Example 7] | ≥ 50%
16 | CN=S(C)(=O)c1cc(NC(=O)C2O[C@]3(C(F)(F)F)CC[C@]3(C)[C@H]2c2ccc(F)c(F)c2OC)ccn1 (relative stereo) [Example 94, rel-(1R,3R,4S,5R)-4-(3,4-difluoro-2-methoxyphenyl)-N-(2-(N,S-dimethylsulfonyl)pyridin-4-yl)-5-methyl-1-(trifluoromethyl)-2-oxabicyclo[3.2.0]heptane-3-carboxamide] | ≥ 50%
17 | COc1c([C@H]2[C@H](C(=O)Nc3ccnc(C(O)CF)c3)O[C@]3(C(F)(F)F)CC[C@]23C)ccc(F)c1F (relative stereo) [Example 89, rel-(1R,3R,4S,5R)-4-(3,4-difluoro-2-methoxyphenyl)-N-(2-(2-fluoro-1-hydroxyethyl)pyridin-4-yl)-5-methyl-1-(trifluoromethyl)-2-oxabicyclo[3.2.0]heptane-3-carboxamide] | ≥ 50%
18 | COc1c([C@H]2[C@H](C(=O)Nc3ccc(F)c(S(=O)(=O)Nc4cscn4)c3)O[C@]3(C(F)(F)F)CC[C@]23C)ccc(F)c1F (relative stereo) [Example 92, rel-(1R,3R,4S,5R)-4-(3,4-difluoro-2-methoxyphenyl)-N-(4-fluoro-3-(N-(thiazol-4-yl)aminosulfonyl)phenyl)-5-methyl-1-trifluoromethyl-2-oxabicyclo[3.2.0]heptane-3-carboxamide] | ≥ 50%
19 | COc1c([C@H]2C(C(=O)Nc3ccc4c(c3)S(=O)(=O)NC4=O)O[C@@](C)(C(F)(F)F)[C@H]2C)ccc(F)c1F (relative stereo) [Example 79, rel-(2R,3S,4S,5)-3-(3,4-difluoro-2-methoxyphenyl)-4,5-dimethyl-5-(trifluoromethyl)-N-(1,1,3-trioxo-2,3-dihydro-1λ6-benzo[d][1,2]thiazol-6-yl)tetrahydrofuran-2-carboxamide] | ≥ 50%
20 | COc1c([C@H]2[C@H](C(=O)Nc3ccc(=O)[nH]n3)O[C@@](C)(C(F)(F)F)[C@H]2C)ccc(F)c1F (relative stereo) [Example 27, rel-(2R,3S,4S,5R)-3-(3,4-difluoro-2-methoxyphenyl)-4,5-dimethyl-N-(6-oxo-1H-1,2-dioxine-3-yl)-5-(trifluoromethyl)tetrahydrofuran-2-carboxamide] | ≥ 50%
21 | COc1c([C@H]2[C@H](C(=O)Nc3ccnc(C(N)=S)c3)O[C@@](C)(C(F)(F)F)[C@H]2C)ccc(F)c1F (relative stereo) [Example 22, rel-(2R,3S,4S,5R)—N-[2-(aminothiomethylidene)pyridin-4-yl]-3-(3,4-difluoro-2-methoxyphenyl)-4,5-dimethyl-5-(trifluoromethyl)tetrahydrofuran-2-carboxamide] | ≥ 50%
22 | COc1c([C@H]2C(C(=O)Nc3ccc(S(N)(=O)=O)nc3)O[C@]3(C(F)(F)F)CC[C@]23C)ccc(F)c1F (some centres unmarked) [Example 99] | ≥ 50%
23 | COc1c(C2C(C(=O)Nc3cc(F)c(C(N)=O)c(C(N)=O)c3)OC(C)(C(F)(F)F)C2C)ccc(F)c1F [Example 80, rel-5-((2R,3S,4S,5R)-3-(3,4-difluoro-2-methoxyphenyl)-4,5-dimethyl-5-(trifluoromethyl)tetrahydrofuran-2-carboxamide)-3-fluorophthalic amine] | ≥ 50%
